Assays:
[1] = molecular target: T1, Glucocorticoid receptor (Homo sapiens) (UniProt P04150); assay: Agonist activity at glucocorticoid receptor in human A549 cells assessed as inhibition of IL-1beta-induced NF-kappaB dependent E-selectin activation by luciferase reporter gene assay relative to dexamethasone; type: cell-based
T1 sequence (whole entry): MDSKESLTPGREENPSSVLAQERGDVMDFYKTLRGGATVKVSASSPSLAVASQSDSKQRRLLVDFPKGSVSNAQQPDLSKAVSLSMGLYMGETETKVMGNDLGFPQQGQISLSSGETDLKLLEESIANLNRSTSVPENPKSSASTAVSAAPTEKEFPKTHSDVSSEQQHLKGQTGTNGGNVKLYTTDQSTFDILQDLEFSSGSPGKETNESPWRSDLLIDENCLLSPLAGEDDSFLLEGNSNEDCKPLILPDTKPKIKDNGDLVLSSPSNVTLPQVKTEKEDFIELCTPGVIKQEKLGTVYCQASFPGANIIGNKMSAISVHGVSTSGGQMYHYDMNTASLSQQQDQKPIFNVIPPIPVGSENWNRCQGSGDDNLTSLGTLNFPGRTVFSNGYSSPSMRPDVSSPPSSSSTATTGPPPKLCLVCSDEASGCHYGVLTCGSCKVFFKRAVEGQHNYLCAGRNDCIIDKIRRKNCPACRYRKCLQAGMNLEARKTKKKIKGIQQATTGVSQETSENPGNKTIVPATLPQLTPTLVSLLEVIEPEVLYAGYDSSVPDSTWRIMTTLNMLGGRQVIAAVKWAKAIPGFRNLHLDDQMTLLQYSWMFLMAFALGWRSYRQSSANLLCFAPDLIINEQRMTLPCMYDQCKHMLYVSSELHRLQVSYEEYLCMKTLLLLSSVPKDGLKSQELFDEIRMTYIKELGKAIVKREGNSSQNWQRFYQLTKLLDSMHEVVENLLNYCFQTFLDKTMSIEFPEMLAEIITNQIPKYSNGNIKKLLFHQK

[2] = molecular target: T2, Glucocorticoid receptor (Homo sapiens, UniProt P04150); assay: Agonist activity at glucocorticoid receptor in human A549 cells assessed as inhibition of IL-1beta-induced NF-kappaB dependent E-selectin activation by luciferase reporter gene assay; type: cell-based
T2 sequence (P04150 whole entry): T1 sequence (whole entry)

CC(C)(C(=O)Nc1nncs1)[C@@H](c1ccccc1)c1ccc2c(cnn2-c2ccc(F)cc2)c1
Efficacy [1]: 86% | EC50 [2]: 4 nM

— ChEMBL document CHEMBL2424628, “Discovery of potent and selective nonsteroidal indazolyl amide glucocorticoid receptor agonists” (Bioorg Med Chem Lett, 2013)
